≈ marks a conversion by molar mass, not a printed value. Like-named read-outs stand apart in the source and are kept apart here.
Columns and labels:
[1] = Solid phase and solution stability of boronic esters; format: physicochemical
Excerpt: The final bond forming step to Compound 1 is a Suzuki-Miyaura coupling between Compounds 2 and 3, as shown in Scheme 3 below (Norio, M. and Suzuki, A., Chem. Rev., 95(7), 2457-2483 (1995)). […] The pinacolatoboronate of the O-alkyl phenol, Compound 7, had acceptable solid phase stability and could be isolated via crystallization.
This was particularly problematic as the isolation process involved a solvent exchange from 2-MeTHF (2-methyl tetrahydrofuran) to iPrOAc (isopropyl acetate), which is not a fast unit operation on scale.

[2] = Solubility of bromination starting material, product and impurity in CH2Cl2 (with or without 10% H2SO4); format: physicochemical; settings: for Solubility in CH2Cl2, 10% H2SO4, 10° C.: CH2Cl2 with 10% H2SO4, 10° C.; for Solubility in CH2Cl2, 10% H2SO4, 20° C.: CH2Cl2 with 10% H2SO4, 20° C.; for Solubility in CH2Cl2, 10% H2SO4, 30° C.: CH2Cl2 with 10% H2SO4, 30° C.
Procedure: This solubility difference is exploited by performing the reaction at a high concentration to drive Compound 5 out of solution once formed, thereby minimizing its ability to react further with the brominating reagent to form Compound 5-a diBr. The reaction is seeded with Compound 5 to initiate its crystallization.

[3] = system: NCI-H460, human non-small cell lung cancer cells; settings: see U.S. Pat. No. 9,034,900; cited from earlier work
[4] = system: HL-60, human proleukemia cells; settings: HL-60 cells; see U.S. Pat. No. 9,034,900; cited from earlier work
[5] = Solubility of Compound 1 in process solvents (ICH class solvents, NMP, DMAc, formic acid); format: physicochemical; settings: for solubility: organic solvent or mixture
Excerpt: The final isolation of Compound 1 requires a polish filtration. For this, the batch must be completely soluble.
The solubility curve of Compound 1 in formic acid-Water is quite steep (see FIG. 7), which enables a volumetrically efficient process.

[6] = target: bromodomain 4 (BRD4) (Homo sapiens, UniProt O60885); settings: preliminary in vitro studies; see U.S. Pat. No. 9,034,900; cited from earlier work
[7] = system: Raji, human Burkitts lymphoma cells; settings: see U.S. Pat. No. 9,034,900; cited from earlier work

SMILES | Solubility in CH2Cl2, 10° C. [2] [mg/mL] | Solubility in CH2Cl2, 20° C. [2] [mg/mL] | Solubility in CH2Cl2, 30° C. [2] [mg/mL] | Solubility in CH2Cl2, 10% H2SO4, 10° C. [2] [mg/mL] | Solubility in CH2Cl2, 10% H2SO4, 20° C. [2] [mg/mL] | Solubility in CH2Cl2, 10% H2SO4, 30° C. [2] [mg/mL] | also measured
CC1(C)OB(c2cc(S(C)(=O)=O)ccc2OCC2CC2)OC1(C)C [Compound 7] |  |  |  |  |  |  | Solution stability ([1]; in solution, decomposing primarily to proteodeborylated compound 10): poor; Solid phase stability ([1]; solid phase): acceptable
CS(=O)(=O)c1ccc(O)c(Br)c1 [Compound 5] | 6 (≈ 23.9 mM) | 8 (≈ 31.9 mM) | 20 (≈ 79.6 mM) | 5 (≈ 19.9 mM) | 8 (≈ 31.9 mM) | 11 (≈ 43.8 mM) | 
CS(=O)(=O)c1ccc(O)cc1 [Compound 4, 4-(methylsulfonyl)phenol] | 30 (≈ 174 mM) | 46 (≈ 267 mM) | 198 (≈ 1150 mM) | 19 (≈ 110 mM) | 51 (≈ 296 mM) | 390 (≈ 2260 mM) | 
CS(=O)(=O)c1cc(Br)c(O)c(Br)c1 [Compound 5-a diBr] | 5 (≈ 15.2 mM) | 7 (≈ 21.2 mM) | 10 (≈ 30.3 mM) | 5 (≈ 15.2 mM) | 7 (≈ 21.2 mM) | 14 (≈ 42.4 mM) | 
Cn1cc(-c2cc(S(C)(=O)=O)ccc2OCC2CC2)c2ccccc2c1=O [Compound 1, 4-[2-(cyclopropylmethoxy)-S-methylsulfonylphenyl]-2-methylisoquinolin-1-one] |  |  |  |  |  |  | other cancer-related inhibitory activity [3]: observed; other cancer-related inhibitory activity [4]: observed; Solubility in almost all ICH Class 3 and common Class 2 (e.g. THF, MeCN) solvents ([5]; ICH Class 3 and common Class 2 solvents): low solubility; solubility ([5]; N-methyl-2-pyrrolidone (NMP), read-out: Solubility in N-methyl-2-pyrrolidone (NMP)): > 50 mg/mL; solubility ([5]; dimethylacetamide (DMAc), read-out: Solubility in dimethylacetamide (DMAc)): > 50 mg/mL; solubility ([5]; formic acid, 20° C., read-out: Solubility in formic acid): > 250 mg/mL; Solubility in a warm MeCN-water mix ([5]; warm MeCN-water mix): reasonable solubility; BRD4 inhibition [6]: observed; other cancer-related inhibitory activity [7]: observed

— US11566004B2, “Process for the preparation of bromodomain inhibitor” (Celgene Quanticel Research, Inc., priority 2018, dated 2023)
